Drawing on patent publication US20190134005A1 (BioMarin Pharmaceutical Inc., priority 2016, published 2019), this text covers IC50 for 42 compounds.

The target of the assay is T1, human CGT (Homo sapiens, UniProt Q16880).
T1 sequence (Q16880 21-541): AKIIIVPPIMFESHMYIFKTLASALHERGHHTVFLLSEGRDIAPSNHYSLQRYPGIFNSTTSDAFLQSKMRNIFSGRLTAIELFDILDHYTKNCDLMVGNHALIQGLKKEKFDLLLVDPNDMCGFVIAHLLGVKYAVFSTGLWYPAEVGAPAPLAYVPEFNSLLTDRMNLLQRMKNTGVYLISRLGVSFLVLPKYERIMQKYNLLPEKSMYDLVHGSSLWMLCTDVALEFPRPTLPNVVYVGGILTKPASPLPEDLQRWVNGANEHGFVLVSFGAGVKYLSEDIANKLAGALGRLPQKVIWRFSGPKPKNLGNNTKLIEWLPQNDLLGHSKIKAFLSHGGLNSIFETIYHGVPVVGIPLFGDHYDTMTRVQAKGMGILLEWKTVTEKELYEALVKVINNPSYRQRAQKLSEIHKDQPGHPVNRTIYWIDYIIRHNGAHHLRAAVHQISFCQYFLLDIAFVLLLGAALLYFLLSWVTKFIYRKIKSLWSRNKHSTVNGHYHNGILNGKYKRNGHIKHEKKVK
Nature of the assay: Assay 1: CGT Enzymatic Assay (RapidFire/MS/MS, 0.01% Tween 80). It counts as biochemical. The conditions noted are these: Table 1, Compounds of Formula (I) and Formula (II), CGT enzymatic assay, read-out: IC50.

Setting [1] is: C6-NBD-dihydro-galactosylceramide readout.

pIC50: −log10 of the molar value. Read-outs that look alike come from different tables or passages of the source.

By pIC50 is commonly meant the negative decadic logarithm of the IC50, by convention in mol/L. As for `COCC1(C)N(c2ccc(Cl)cc2)C(=O)N(c2ccc(Cl)cc2)C1(O)c1cccc(OC(F)(F)F)c1` (mixture of isomers) [Compound 296, 1,3-bis(4-chlorophenyl)-4-hydroxy-5-(methoxymethyl)-5-methyl-4-(3-(trifluoromethoxy)phenyl)imidazolidin-2-one], under setting [1], the negative-log IC50 (pIC50) is > 6.00. For `COc1ccc(N2C(=O)N(c3ccc(OC)cc3)C(O)(c3cccc(OC(F)(F)F)c3)C2C(C)C)cc1` (racemic) [Example 329, (5S)-4-hydroxy-5-isopropyl-1,3-bis(4-methoxyphenyl)-4-(3-(trifluoromethoxy)phenyl)imidazolidin-2-one and (5R)-4-hydroxy-5-isopropyl-1,3-bis(4-methoxyphenyl)-4-(3-(trifluoromethoxy)phenyl)imidazolidin-2-one], under setting [1], the negative-log IC50 (pIC50) was > 6.00. Take `CC1(C(F)(F)F)N(c2ccc(Cl)cc2)C(=O)N(c2ccc(Cl)cc2)C1(O)c1cc(C#N)cc(C#N)c1` (racemic) [Example 331, 5-((5S)-1,3-bis(4-chlorophenyl)-4-hydroxy-5-methyl-2-oxo-5-(trifluoromethyl)imidazolidin-4-yl)isophthalonitrile and 5-((5R)-1,3-bis(4-chlorophenyl)-4-hydroxy-5-methyl-2-oxo-5-(trifluoromethyl)imidazolidin-4-yl)isophthalonitrile]: the pIC50 under setting [1] is > 6.00.

Turning to `C[C@@H]1N(c2ccc(Cl)cc2)C(=O)N(c2ccc(Cl)cc2)C1(O)c1cccc(Cl)c1` (single isomer, unassigned) [Compound 62-1], the pIC50 is > 6.00. `C[C@H]1N(c2ccc(Cl)cc2)C(=O)N(c2ccc(Cl)cc2)C1(O)c1cccc(Cl)c1` (single isomer, unassigned) [Compound 62-2]: the negative-log IC50 (pIC50) is > 6.00.

With `C[C@@H]1N(c2ccc(Cl)cc2)C(=O)N(c2ccc(Cl)cc2)C1(O)c1cccc(C(F)(F)F)c1` (single isomer, unassigned) [Compound 77-1], the pIC50 is > 6.00. On to `COC(=O)C1(O)[C@H](C)N(c2ccc(Br)cc2)C(=O)N1c1ccc(Br)cc1` (single isomer, unassigned) [Compound 84-1], for which the negative logarithm of the IC50 (pIC50) was < 4.30. The same measure, in the same setting: in the case of `COC(=O)C1(O)[C@@H](C)N(c2ccc(Br)cc2)C(=O)N1c1ccc(Br)cc1` (single isomer, unassigned) [Compound 84-2] it was < 4.30; in that of `CCC[C@@H]1N(c2ccc(Cl)cc2)C(=O)N(c2ccc(Cl)cc2)C1(O)c1cccc(C(F)(F)F)c1` (single isomer, unassigned) [Compound 87-1], > 6.00; in that of `C[C@@H]1N(c2ccc(Cl)cc2)C(=O)N(c2ccc(Cl)cc2)C1(O)c1cccc(C#N)c1` (single isomer, unassigned) [Compound 99-1], > 6.00. Still for that read-out and setting: with `C[C@H]1N(c2ccc(Cl)cc2)C(=O)N(c2ccc(Cl)cc2)C1(O)c1cccc(C#N)c1` (single isomer, unassigned) [Compound 99-2] the figure was > 6.00. The same measure, in the same setting: with `CCC[C@@H]1N(c2ccc(Cl)cc2)C(=O)N(c2ccc(Cl)cc2)C1(O)c1cccc(C#N)c1` (single isomer, unassigned) [Compound 101-1] the figure was > 6.00; with `CCc1ccc(N2C(=O)N(c3ccc(CC)cc3)C(O)(c3cccc(C#N)c3)[C@@H]2C)cc1` (single isomer, unassigned) [Compound 104-1], 4.30 to 5.00.

Take `CCc1ccc(N2C(=O)N(c3ccc(CC)cc3)C(O)(c3cccc(C#N)c3)[C@H]2C)cc1` (single isomer, unassigned) [Compound 104-2]: the pIC50 was > 6.00.

For `Cc1ccc(N2C(=O)N(c3ccc(C)cc3)C(O)(c3cccc(C#N)c3)[C@@H]2C)cc1` (single isomer, unassigned) [Compound 105-1], the pIC50 was 5.00 to 6.00. On the same count and under the same terms, with `Cc1ccc(N2C(=O)N(c3ccc(C)cc3)C(O)(c3cccc(C#N)c3)[C@H]2C)cc1` (single isomer, unassigned) [Compound 105-2] the figure was > 6.00; with `CC[C@@H]1N(c2ccc(Cl)cc2)C(=O)N(c2ccc(Cl)cc2)C1(O)c1cccc(C#N)c1` (single isomer, unassigned) [Compound 106-1], > 6.00; with `CC[C@H]1N(c2ccc(Cl)cc2)C(=O)N(c2ccc(Cl)cc2)C1(O)c1cccc(C#N)c1` (single isomer, unassigned) [Compound 106-2], > 6.00.

For `O=C1N(c2ccc(Cl)cc2)[C@@H]([C@@H]2CCCO2)C(O)(c2cccc(Cl)c2)N1c1ccc(Cl)cc1` (single isomer, unassigned) [Compound 117-1], the negative-log IC50 (pIC50) was 5.00 to 6.00. Same read-out and setting: with `O=C1N(c2ccc(Cl)cc2)[C@H]([C@H]2CCCO2)C(O)(c2cccc(Cl)c2)N1c1ccc(Cl)cc1` (single isomer, unassigned) [Compound 117-2] the figure was 5.00 to 6.00. For `COc1cccc([C@@]2(C)C(O)N(c3ccc(Br)cc3)C(=O)N2c2ccc(Br)cc2)c1` (single isomer, unassigned) [Compound 126-1], the pIC50 is < 4.30.

As to `COc1cccc([C@]2(C)C(O)N(c3ccc(Br)cc3)C(=O)N2c2ccc(Br)cc2)c1` (single isomer, unassigned) [Compound 126-2], the negative logarithm of the IC50 (pIC50) is > 6.00. Consider `N#Cc1cccc(C2(O)[C@H](CC3CC3)N(c3ccc(Cl)cc3)C(=O)N2c2ccc(Cl)cc2)c1` (single isomer, unassigned) [Compound 132-1], for which the negative-log IC50 (pIC50) is 5.00 to 6.00. For `N#Cc1cccc(C2(O)[C@@H](CC3CC3)N(c3ccc(Cl)cc3)C(=O)N2c2ccc(Cl)cc2)c1` (single isomer, unassigned) [Compound 132-2], the negative logarithm of the IC50 (pIC50) is > 6.00. As for `CC(=O)c1cccc(C2(O)[C@H](C)N(c3ccc(Cl)cc3)C(=O)N2c2ccc(Cl)cc2)c1` (single isomer, unassigned) [Compound 136-1], the pIC50 is 5.00 to 6.00. On the same count and under the same terms, in the case of `CC[C@@H]1N(c2ccc(F)cc2)C(=O)N(c2ccc(F)cc2)C1(O)c1cccc(C(F)(F)F)c1` (single isomer, unassigned) [Compound 139-1] it was 5.00 to 6.00; in that of `CC[C@H]1N(c2ccc(F)cc2)C(=O)N(c2ccc(F)cc2)C1(O)c1cccc(C(F)(F)F)c1` (single isomer, unassigned) [Compound 139-2], > 6.00; in that of `C[C@]1(c2cccc(Cl)c2)C(O)N(c2ccc(Cl)cc2)C(=O)N1c1ccc(Cl)cc1` (single isomer, unassigned) [Compound 149-1], 5.00 to 6.00. The same measure, in the same setting: with `C[C@@]1(c2cccc(Cl)c2)C(O)N(c2ccc(Cl)cc2)C(=O)N1c1ccc(Cl)cc1` (single isomer, unassigned) [Compound 149-2] the figure was > 6.00; with `Cc1ccc(N2C(=O)N(c3ccc(C)cc3)C(O)(c3cccc(OC(F)(F)F)c3)[C@@H]2C(C)C)cc1` (single isomer, unassigned) [Compound 235-1], > 6.00; with `Cc1ccc(N2C(=O)N(c3ccc(C)cc3)C(O)(c3cccc(OC(F)(F)F)c3)[C@H]2C(C)C)cc1` (single isomer, unassigned) [Compound 235-2], > 6.00.

Consider `COC[C@@]1(C)N(c2ccc(Cl)cc2)C(=O)N(c2ccc(Cl)cc2)C1(O)c1cccc(C#N)c1` (single isomer, unassigned) [Compound 297-1], for which the pIC50 under setting [1] is > 6.00. Same read-out and setting: in the case of `COC[C@]1(C)N(c2ccc(Cl)cc2)C(=O)N(c2ccc(Cl)cc2)C1(O)c1cccc(C#N)c1` (single isomer, unassigned) [Compound 297-2] it was > 6.00. Take `C[C@]1(C(F)(F)F)N(c2ccc(Cl)cc2)C(=O)N(c2ccc(Cl)cc2)C1(O)c1cccc(OC(F)(F)F)c1` (single isomer, unassigned) [Example 159-1]: the negative-log IC50 (pIC50) is 5.00 to 6.00. On the same count and under the same terms, with `C[C@@]1(C(F)(F)F)N(c2ccc(Cl)cc2)C(=O)N(c2ccc(Cl)cc2)C1(O)c1cccc(OC(F)(F)F)c1` (single isomer, unassigned) [Example 159-2] the figure was > 6.00; with `CC[C@@]1(C)N(c2ccc(Cl)cc2)C(=O)N(c2ccc(Cl)cc2)C1(O)c1cccc(OC(F)(F)F)c1` (single isomer, unassigned) [Example 163-1], 5.00 to 6.00; with `CC[C@]1(C)N(c2ccc(Cl)cc2)C(=O)N(c2ccc(Cl)cc2)C1(O)c1cccc(OC(F)(F)F)c1` (single isomer, unassigned) [Example 163-2], > 6.00. For `CN(C)C[C@@H]1N(c2ccc(Cl)cc2)C(=O)N(c2ccc(Cl)cc2)C1(O)c1cccc(OC(F)(F)F)c1` (single isomer, unassigned) [Example 166-1], the negative-log IC50 (pIC50) is > 6.00.

Take `CN(C)C[C@H]1N(c2ccc(Cl)cc2)C(=O)N(c2ccc(Cl)cc2)C1(O)c1cccc(OC(F)(F)F)c1` (single isomer, unassigned) [Example 166-2]: the negative logarithm of the IC50 (pIC50) was > 6.00. Consider `CCC[C@@]1(C)N(c2ccc(Cl)cc2)C(=O)N(c2ccc(Cl)cc2)C1(O)c1cccc(OC(F)(F)F)c1` (single isomer, unassigned) [Example 170-1], for which the pIC50 is 4.30 to 5.00. The same measure, in the same setting: with `CCC[C@]1(C)N(c2ccc(Cl)cc2)C(=O)N(c2ccc(Cl)cc2)C1(O)c1cccc(OC(F)(F)F)c1` (single isomer, unassigned) [Example 170-2] the figure was > 6.00; with `C[C@]1(C(F)(F)F)N(c2ccc(Cl)cc2)C(=O)N(c2ccc(Cl)cc2)C1(O)c1cccc(C#N)c1` (single isomer, unassigned) [Example 177-1], > 6.00.
